Patent publication US20160296498A1, “Ketorolac Sublingual Spray Formulations” (Insys Development Company, Inc., priority 2015, published 2016)

Test: Room temperature storage of ketorolac formulated at different pH
Type: physicochemical
Settings: formulated with a pH of less than 5 or greater than 9

degradation when stored at room temperature: would degrade
SMILES: O=C(c1ccccc1)c1ccc2n1CCC2C(=O)O (stereo not shown) [ketorolac, Ketorolac]
